Assay results taken from the RepoRT retention time repository (doi:10.1007/s11306-011-0298-z).

assay: RP, Waters ACQUITY UPLC HSS T3, 100 × 2.1 mm, 1.8 µm, 30 °C, 0.3 mL/min, estimated dead time 0.73 min; A: water + 0.1% formic acid, pH 3; B: methanol + 0.1% formic acid, pH 3; gradient (min/%B) 0/0 6/0 56/100 60/100; conditions: stereoisomer not certain

| Structure (SMILES) | LC retention time |
| --- | --- |
| O=c1cc(-c2ccc(O)cc2)oc2cc(O)cc(O)c12 [apigenin] | 37.1 min |
| CC(C)c1ccc(C=O)cc1 [cuminaldehyde] | 38.6 min |
| O=c1cc(-c2ccc(O)cc2)oc2cc(OC3OC(CO)C(O)C(O)C3O)cc(O)c12 (stereo unspecified) [apigenin-7-O-glucoside] | 28.9 min |
| CC1OC(OC2C(Oc3cc(O)c4c(c3)OC(c3ccc(O)cc3)CC4=O)OC(CO)C(O)C2O)C(O)C(O)C1O (stereo unspecified) [naringin] | 28.6 min |
| O=C1CC(c2ccc(O)cc2)Oc2cc(OC3OC(CO)C(O)C(O)C3O)cc(O)c21 (stereo unspecified) [naringenin 7-glucoside] | 27.9 min |
| O=C(O)CC(Nc1ncnc2c1ncn2C1OC(COP(=O)(O)O)C(O)C1O)C(=O)O (stereo unspecified) [Adenylosuccinic acid] | 12.7 min |
| O=c1c(OC2OC(CO)C(O)C(O)C2O)c(-c2ccc(O)cc2)oc2cc(O)cc(O)c12 (stereo unspecified) [kaempferol 3-glucoside] | 31.2 min |
| O=CC(O)C(O)C(O)C(O)CO (stereo unspecified) [altrose] | 1.43 min |
| Cn1cnc2c1c(=O)[nH]c(=O)n2C [theobromine] | 15.3 min |
| CC1OC(OCC2OC(Oc3c(-c4ccc(O)c(O)c4)oc4cc(O)cc(O)c4c3=O)C(O)C(O)C2O)C(O)C(O)C1O (stereo unspecified) [quercetin 3-rutinoside] | 29.1 min |
| C=C(C)C1CCC2(C(=O)O)CCC3(C)C(CCC4C5(C)CCC(O)C(C)(C)C5CCC43C)C12 (stereo unspecified) [betulinic acid] | 53.2 min |
| OCC1OC(Oc2cc3c(OC4OC(CO)C(O)C(O)C4O)cc(O)cc3[o+]c2-c2ccc(O)c(O)c2)C(O)C(O)C1O (stereo unspecified) [cyanidin-3,5-diglucoside] | 18.4 min |
| CCCCCCCCCCCCCCCCCCCCCC(=O)O [behenic acid] | 58.7 min |
| Oc1ccc(C2Oc3cc(O)cc(O)c3CC2O)cc1 (stereo unspecified) [epiafzelechin] | 24.4 min |
| C=CC1=C(C)C(=Cc2[nH]c(Cc3[nH]c(C=C4NC(=O)C(C)=C4C=C)c(C)c3CCC(=O)O)c(CCC(=O)O)c2C)NC1=O [bilirubin] | 56.4 min |
| O=C(CO)C(O)C(O)C(O)CO (stereo not drawn) [D(-)fructose] | 1.4 min |
| COc1cc(C=CC(=O)OC(C(=O)O)C(O)C(=O)O)ccc1O (stereo unspecified) [fertaric acid] | 19.5 min |
| OCCc1c[nH]c2ccccc12 [trypthophol] | 26.2 min |
| Nc1nc2nc[nH]c2c(=O)[nH]1 [guanine] | 3.21 min |
| COc1cc(-c2oc3cc(=O)cc4oc(C(=O)O)cc(c2OC2OC(CO)C(O)C(O)C2O)c43)cc(OC)c1O (stereo unspecified) [vitisin A] | 28.3 min |
| O=c1cc(-c2ccccc2)oc2cc(O)c(O)c(O)c12 [baicalein] | 36.6 min |
| Nc1ncnc2c1ncn2C1OC(CO)C(O)C1OP(=O)(O)O (stereo unspecified) [adenosine 2'-monophosphate] | 10.9 min |

| Structure (SMILES) | LC retention time |
| --- | --- |
| O=C(O)CC(O)(CC(=O)O)C(=O)O [citric acid] | 3.91 min |
| CN1CCCC1c1cccnc1 (stereo unspecified) [nicotine] | 4.64 min |
| COC(=O)c1cc(O)c(O)c(O)c1 [methyl gallate] | 18.2 min |
| OCC1OC(Oc2cc3c(OC4OC(CO)C(O)C(O)C4O)cc(O)cc3[o+]c2-c2ccc(O)cc2)C(O)C(O)C1O (stereo unspecified) [pelargonidin-3,5-diglucoside] | 19.6 min |
| COc1cc(-c2oc3cc(=O)cc(OC4OC(CO)C(O)C(O)C4O)c-3cc2OC2OC(CO)C(O)C(O)C2O)cc(OC)c1O (stereo unspecified) [malvidin-3,5-diglucoside] | 20.7 min |
| O=c1c(O)c(-c2ccc(OC3OC(CO)C(O)C(O)C3O)c(O)c2)oc2cc(O)cc(O)c12 (stereo unspecified) [quercetin 4'-glucoside] | 30.4 min |
| CC(C=CC1(O)C(C)=CC(=O)CC1(C)C)=CC(=O)O (stereo unspecified) [abscisic acid] | 31.3 min |
| N[C@@H](CC(=O)O)C(=O)O [L-aspartic acid] | 1.28 min |
| O=C[C@H](O)[C@@H](O)[C@@H](O)[C@H](O)C(=O)O [D-(+)galacturonic acid] | 1.33 min |
| Oc1ccc(C2Oc3cc(O)c4c(c3C2c2cc(O)cc(O)c2)C2c3c(O)cc5c(c3C(C4c3ccc(O)cc3)C2c2ccc(O)cc2)C(c2cc(O)cc(O)c2)C(c2ccc(O)cc2)O5)cc1 (stereo not drawn) [vaticanol C like isomer] | 29 min |
| COc1cc(C=CC=O)ccc1O [coniferyl aldehyde] | 25.9 min |
| CCC(=O)OCC=C(C)CCC=C(C)C [geranyl propionate] | 48.2 min |
| O=C(O)C(O)Cc1c[nH]c2ccccc12 (stereo unspecified) [Indolelactic acid] | 24.6 min |
| Cc1cc(=O)oc2cc(O)ccc12 [4-methylumbelliferone] | 27.8 min |
| C=Cc1ccc(O)c(OC)c1 [2-methoxy-4-vinylphenol] | 31.3 min |
| CC1(O)CCC(C(C)(C)O)CC1 (stereo not drawn) [trans-terpin] | 27.9 min |
| NCCC[C@H](N)C(=O)O [L-ornithine] | 1.1 min |
| O=c1cc(-c2ccc(O)c(O)c2)oc2cc(O)cc(O)c12 [luteolin] | 34.7 min |
| Oc1ccc(C=Cc2cc(O)cc3c2C(c2cc(O)cc4c2C(c2cc(O)cc(O)c2)C(c2ccc(O)cc2)O4)C(c2ccc(O)cc2)O3)cc1 (stereo not drawn) [E-cis-miyabenol C] | 32.6 min |
| CCC(C)CN (stereo unspecified) [2-methylbutylamine] | 6.5 min |
| N=C(N)N [guanidine] | 1.3 min |
| NC(=O)CC[C@H](N)C(=O)O [L-Glutamine] | 1.3 min |

| Structure (SMILES) | LC retention time |
| --- | --- |
| CC(C)=CCCC(C)=CCOC1OC(CO)C(O)C(O)C1O (stereo unspecified) [geranyl glucoside] | 36.7 min |
| COc1cc(O)c2c(=O)c(O)c(-c3ccc(O)c(OC)c3)oc2c1 [rhamnazin] | 42.2 min |
| O=C(C=Cc1ccc(O)c(O)c1)OC(C(=O)O)C(O)C(=O)O (stereo unspecified) [caftaric acid] | 15.5 min |
| CCCCCC(=O)O [hexanoic acid] | 30.9 min |
| Oc1ccc(C=Cc2ccccc2)cc1 [4-stilbenol] | 41.8 min |
| NCCc1ccc(O)cc1 [tyramine] | 6.2 min |
| CC1(C)CCC2(CO)CCC3(C)C(=CCC4C5(C)CCC(O)C(C)(C)C5CCC43C)C2C1 (stereo unspecified) [erythrodiol] | 53.8 min |
| Nc1ncnc2c1ncn2C1OC(COP(=O)(O)O)C(O)C1O (stereo unspecified) | 4.08 min |
| NCCc1cnc[nH]1 [histamine] | 1.1 min |
| CC(C)C[C@H](N)C(=O)O [L-leucine] | 4.98 min |
| O=c1ccc2cc(OC3OC(CO)C(O)C(O)C3O)c(O)cc2o1 (stereo unspecified) [esculin] | 17.8 min |
| COc1cc(C(C)=O)ccc1O [Acetovanillone] | 23.9 min |
| O=C(C=CC=Cc1ccc2c(c1)OCO2)N1CCCCC1 [piperine] | 40.7 min |
| O=C(O)C=C(CC(=O)O)C(=O)O [cis-acotinic acid] | 4.4 min |
| CC(C)=CCCC(C)C1CCC2(C)C3=C(CCC12C)C1(C)CCC(O)C(C)(C)C1CC3 (stereo unspecified) [lanosterol] | 58.3 min |
| OCC1OC(Oc2cc3c(O)cc(O)cc3[o+]c2-c2ccc(O)c(O)c2)C(O)C(O)C1O (stereo unspecified) [cyanidin 3 galactoside] | 22.1 min |
| N[C@@H](CCCCN[C@@H](CCC(=O)O)C(=O)O)C(=O)O [L-saccharopine] | 1.38 min |
| COc1cc(O)c2c(c1)OC(c1ccc(O)cc1)CC2=O (stereo unspecified) [sakuranetin] | 39 min |
| O=P(O)(O)OCC1OC(O)C(O)C(O)C1O (stereo unspecified) [glucose-6-phosphate] | 1.22 min |
| CCCCCCCCN [octylamine] | 27.6 min |
| OCC1OC(OCC2OC(OC3(CO)OC(CO)C(O)C3O)C(O)C(O)C2O)C(O)C(O)C1O (stereo unspecified) [raffinose] | 2.6 min |
| O=C(O)CCc1c[nH]c2ccccc12 [indole-3-propionic acid] | 30.3 min |

| Structure (SMILES) | LC retention time |
| --- | --- |
| CC(O)(CC(=O)O)C(=O)O (stereo unspecified) [citramalic acid] | 5.18 min |
| COc1cc(C=Cc2cc(O)cc(OC3OC(CO)C(O)C(O)C3O)c2)ccc1O (stereo unspecified) [isorhapontin] | 26.1 min |
| O=C1c2c(O)cc(O)cc2OC(c2ccc(O)cc2)C1O (stereo unspecified) [dihydrokaempferol] | 27.8 min |
| CC1OC(Oc2c(-c3ccc(O)c(O)c3)oc3cc(O)cc(O)c3c2=O)C(O)C(O)C1O (stereo unspecified) [quercitrin] | 31.1 min |
| O=C(O)C1(O)CC(O)C(O)C(O)C1 (stereo unspecified) [quinic acid] | 1.6 min |
| CCNCC [diethylamine] | 1.68 min |
| Cc1ccc(C=O)o1 [5-methyl furfural] | 20.3 min |
| O=C(O)C=CC(=O)O [fumaric acid] | 3.54 min |
| O=C(O)C1CNCCN1 (stereo unspecified) [piperazine carboxylic acid] | 1.19 min |
| O=c1c(OC2OC(CO)C(O)C(O)C2O)c(-c2ccc(OC3OC(CO)C(O)C(O)C3O)c(O)c2)oc2cc(O)cc(O)c12 (stereo unspecified) [quercetin 3,4'-diglucoside] | 26.1 min |
| CC(C)C(C)C=CC(C)C1CCC2C3=CC=C4CC(O)CCC4(C)C3CCC21C (stereo unspecified) [ergosterol] | 58.9 min |
| NCCCC[C@H](N)C(=O)O [L-lysine] | 1.18 min |
| COc1cc2ccc(=O)oc2cc1O [scopoletin] | 24.6 min |
| CCOC(N)=O [urethane] | 7.1 min |
| CC(=O)NC1C(O)OC(CO)C(O)C1O (stereo unspecified) [N-acetyl-galactosamine] | 1.49 min |
| O=C(C=Cc1ccc(O)c(O)c1)OC1C(O)CC(O)(C(=O)O)CC1O (stereo unspecified) [cryptochlorogenic acid] | 20.1 min |
| O=C(O)C(=O)O [oxalic acid] | 1.3 min |
| O=C(O)CNC(=O)c1ccccc1 [hippuric acid] | 17.3 min |
| O=C(O)/C=C/c1ccc(O)cc1 [p-coumaric acid] | 24.3 min |
| COc1cc(-c2oc3cc(O)cc(O)c3c(=O)c2O)cc(O)c1O [laricitrin] | 34.7 min |
